Test results from patent US20200129570A1, “Specific Bacterial Species and Metabolite That Improves Immune Checkpoint Inhibitor Therapy Efficacy” (BOARD OF REGENTS, THE UNIVERSITY OF TEXAS SYSTEM, priority 2017, published 2020).
Where “and” joins values, the source holds several entries; their conditions need not be identical. Equal entries are not always repeated. Entries after “also recorded” stand apart in the source; their conditions may differ.

System: unresectable or metastatic melanoma
Experiment: Single-site correlative study: RECIST v1.1 response to immune checkpoint inhibitor therapy (ICT) in metastatic melanoma patients
Type: in vivo, human
Details: for RECIST Category / Change in tumor size (%): individual metastatic melanoma patient, one line per patient; for Change in tumor size (%): RECIST v1.1; for number of patients who responded: monotherapy, metastatic melanoma
Experimental: Patients and Methods. The study design was a single-site, correlative study of the effects of gut microbiota and metabolites on ICT efficacy in 39 patients. The study was approved by the University of Texas Southwestern Medical Center Institutional Review Board (IRB # STU012016-056). The study was conducted in accordance with the Declaration of Helsinki. The inventors enrolled patients with a histologic diagnosis of unresectable or metastatic melanoma that were scheduled to begin ICT and able to collect stool specimens, store them in a freezer and deliver them to the University of Texas Southwestern Cancer Center facility. In addition, patients had to have measurable disease by Response Evaluation Criteria in Solid Tumors (RECIST) v1.1. Tumor sizes were evaluated within 4 weeks prior to beginning therapy by exams, CT scans, and/or MRIs. […] After informed consent, stool samples were collected and immediately frozen until transferred to the University of Texas Southwestern Medical Center at pretreatment and various times post-therapy. Repeat exams and scans were obtained every 2-3 months. Demographics, antibiotic use, and probiotic exposure were recorded for each patient. Patient response, stable disease and progression were evaluated by RECIST v1.1 criteria as reported.

Substance | RECIST Category | Change in tumor size (%) | number of patients who responded | RECIST responders (patients/treated) (metastatic melanoma patients)
ipilimumab | Response | −100% | One | 
pembrolizumab | Progression; also recorded: Response; also recorded: Stable | 53% and 81% and −36% and −68% and 100% (2×) and −27% and −14% and 0% and 125% and 46% and −48% and 131% |  | 3/13
nivolumab | Response | −70% | One | 
